Experimental data: patent publication US6451800B1, “Phenylpiperazine derivatives as integrin αvβ3 antagonists” (Meiji Seika Kaisha, Ltd., priority 1998, dated 2002)
pIC50: −log10 of the molar value.

Experiments:
GP IIb/IIIa = GP IIb/IIIa (Homo sapiens, UniProt P05106+P08514); assay: GP IIb/IIIa antagonistic activity (method of Pharmacological Test 2 in WO 94/21599); type: binding
Method: (§1) GP IIb/IIIa Antagonistic Activity and Human Platelet Aggregation Inhibitory Activity
GP IIb/IIIa antagonistic activity was measured for the compounds according to the present invention. The measurement of the GP IIb/IIIa antagonistic activity was carried out according to the method described in Pharmacological Test 2 in WO 94/21599.

[1] = test system: human platelet aggregation; assay: Human platelet aggregation inhibitory activity (method of Pharmacological Test 1 in WO 94/21599); type: cell-based
Method: as §1
Human platelet aggregation inhibitory activity was measured for the compounds according to the present invention. The measurement of the human platelet aggregation activity was carried out according to the method described in Pharmacological Test 1 in WO 94/21599.

mice = assay: Acute toxicity test, intravenous administration to mice; type: in vivo; details: 12.5 mg/kg
Source text: The compound of Example 3 was intravenously administered to mice.

Oral absorption in rats = type: in vivo; details: data not shown
Source text: Therefore, any of the compounds, wherein R^9 represents an alkyl group or a hydrogen atom, can be used in the treatment of the above diseases.

[2] = target: T1, integrin αvβ3 (vitronectin receptor purified from the human placenta) (Homo sapiens, UniProt P05106+P06756); assay: αvβ3 binding assay (vitronectin-vitronectin receptor binding assay); details: vitronectin receptor from human placenta; read-out: IC50, inhibition of binding between vitronectin and vitronectin receptor (αvβ3 binding inhibitory activity)
T1 construct: a vitronectin receptor (protein content: 118 μg/ml) purified from the human placenta; from tissue; host or cells: human placenta
T1 sequence (P06756 31-889 limits assumed): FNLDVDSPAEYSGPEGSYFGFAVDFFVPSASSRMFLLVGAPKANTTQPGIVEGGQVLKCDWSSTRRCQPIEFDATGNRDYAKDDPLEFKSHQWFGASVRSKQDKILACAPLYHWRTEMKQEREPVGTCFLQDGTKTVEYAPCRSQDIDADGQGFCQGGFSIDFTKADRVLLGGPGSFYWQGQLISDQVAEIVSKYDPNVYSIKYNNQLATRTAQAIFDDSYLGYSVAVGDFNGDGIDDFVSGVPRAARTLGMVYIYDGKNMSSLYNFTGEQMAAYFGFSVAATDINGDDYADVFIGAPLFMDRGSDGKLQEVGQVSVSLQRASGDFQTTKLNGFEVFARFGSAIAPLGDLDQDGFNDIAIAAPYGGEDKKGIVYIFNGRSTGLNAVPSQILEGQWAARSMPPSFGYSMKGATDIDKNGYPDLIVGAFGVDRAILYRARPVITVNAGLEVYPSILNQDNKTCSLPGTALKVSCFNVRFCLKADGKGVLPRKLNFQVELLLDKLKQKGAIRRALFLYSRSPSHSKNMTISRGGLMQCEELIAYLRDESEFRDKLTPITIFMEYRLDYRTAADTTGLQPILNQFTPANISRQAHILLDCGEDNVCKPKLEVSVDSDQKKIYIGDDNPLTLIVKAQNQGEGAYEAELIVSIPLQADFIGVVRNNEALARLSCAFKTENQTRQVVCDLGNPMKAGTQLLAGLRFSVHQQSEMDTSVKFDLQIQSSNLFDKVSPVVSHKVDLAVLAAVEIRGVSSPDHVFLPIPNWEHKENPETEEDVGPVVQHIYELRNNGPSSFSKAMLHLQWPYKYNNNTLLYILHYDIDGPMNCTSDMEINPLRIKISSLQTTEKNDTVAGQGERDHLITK
T1 sequence (P06756 891-1048 partner limits assumed): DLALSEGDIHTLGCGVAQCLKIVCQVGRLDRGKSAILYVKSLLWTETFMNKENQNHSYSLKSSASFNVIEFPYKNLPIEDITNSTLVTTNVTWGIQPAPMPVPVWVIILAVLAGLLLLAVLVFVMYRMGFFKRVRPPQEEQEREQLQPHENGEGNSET
T1 sequence (P05106 27-788): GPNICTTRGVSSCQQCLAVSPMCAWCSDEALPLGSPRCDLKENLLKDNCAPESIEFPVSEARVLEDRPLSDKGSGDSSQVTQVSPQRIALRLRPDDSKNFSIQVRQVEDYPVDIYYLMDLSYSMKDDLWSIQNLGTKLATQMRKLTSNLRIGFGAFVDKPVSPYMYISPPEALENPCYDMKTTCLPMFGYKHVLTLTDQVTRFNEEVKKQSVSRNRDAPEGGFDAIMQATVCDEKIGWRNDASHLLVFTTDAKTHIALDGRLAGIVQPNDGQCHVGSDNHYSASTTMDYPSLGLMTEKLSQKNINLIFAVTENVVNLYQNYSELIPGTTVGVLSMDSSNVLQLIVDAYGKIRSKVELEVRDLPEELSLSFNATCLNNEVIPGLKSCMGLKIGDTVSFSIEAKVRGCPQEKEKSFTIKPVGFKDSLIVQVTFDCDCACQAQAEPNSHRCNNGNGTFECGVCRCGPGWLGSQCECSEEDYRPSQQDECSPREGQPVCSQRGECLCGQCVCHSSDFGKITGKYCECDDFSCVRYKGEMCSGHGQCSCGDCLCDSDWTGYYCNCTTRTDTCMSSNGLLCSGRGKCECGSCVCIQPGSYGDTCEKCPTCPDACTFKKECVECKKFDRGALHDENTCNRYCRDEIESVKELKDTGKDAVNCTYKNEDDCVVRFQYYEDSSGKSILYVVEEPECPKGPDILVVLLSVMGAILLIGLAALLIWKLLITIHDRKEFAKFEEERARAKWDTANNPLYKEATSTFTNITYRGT
Method: Integrin αvβ3 antagonistic activity was measured for the compounds according to the present invention in a vitronectin-vitronectin receptor binding assay system in accordance with the method of Kouns et al. (W. C. Kouns, D. Kirchhofer, P. Hadvary, A. Edenhofer, T. Weller, G. Pfenninger, H. R. Baumgartner, L. K. Jennings and B. Steiner, Blood, 8, 2539-2547 (1992)).
Specifically, a vitronectin receptor (protein content: 118 μg/ml) purified from the human placenta in accordance with the method of Pytela et al. (R. Pytela, M. D. Pierschbacher, S. Argraves, S. Suzuki, and E. Ruoslahti, Method in Enzymology, 144, 475-489 (1987)) was diluted 50 times with TBS (20 mM Tris-HCl, 150 mM NaCl, 1 mM CaCl2, 1 mM MgCl2, pH 7.4), and distributed and coated on wells (50 μl/well) of a plate (Maxisorp, Nunc, 96 well Immuno Plate). The plate was then allowed to stand at 4° C. for 1 day, washed twice with TBS (200 μl/well), and then subjected to blocking with TBS (150 μl/well) containing 1% bovine serum albumin (SIGMA) at 4° C. overnight. After washing twice with TBS (200 μl/well), 50 μl of vitronectin (CALBIOCHEM) adjusted to 0.2 μg/ml by the addition of TBS (TBS-Tween) containing 0.01% Tween-20 was mixed with 50 μl of each test compound adjusted to each concentration in wells, and a reaction was allowed to proceed at room temperature for 4 hr. After the completion of the reaction, the wells were washed five times with TBS-Tween. A solution prepared by diluting anti-vitronectin rabbit antiserum (CHEMICON) 500 times with TBS-Tween was added as a primary antibody in an amount of 50 μl per well, and a reaction was allowed to proceed at room temperature for 1.5 hr. After washing five times with 200 μl/well of TBS-Tween, a peroxidase (POD)-labeled anti-rabbit IgG antibody solution (CAPPEL) diluted 500 times with TBS-Tween was added as a secondary antibody in an amount of 50 μl/well, and a reaction was allowed to proceed at room temperature for 1.5 hr. After washing five times with TBS-Tween (200 μl /well), ABTS (2,2′-azino-bis(3-ethylbenzthiazoline-6-sulfonic acid), SIGMA) was adjusted to 1 mg/ml by the addition of a ten-fold diluted POD-buffer (ZYMED), and added in an amount of 50 μl/well, and a reaction was allowed to proceed for 5 to 10 min. A 0.1 M citric acid buffer (pH 4.3) containing 0.05% NaN3 was added in an amount of 50 μl/well to stop the reaction, followed by the measurement of the absorbance at 415 nm with a microplate reader (MTP 32, Corona Electric) (reference: 675 nm). The total binding was defined as the absorbance after a reaction using 50 μl of TBS-Tween instead of the test compound, and the non-specific binding (100% inhibition) was defined as the absorbance after a reaction using 50 μl of TBS-Tween containing 2×10^−3 M RGDS. The inhibition was calculated by the following equation: [formula]
IC50 was determined from a primary regression line of the logarithm of each concentration of the test compound and the logarithm of (100−inhibition)/inhibition.

[3] = test system: human vascular smooth muscle cells; assay: Inhibition of adhesion of human vascular smooth muscle cells to immobilized human vitronectin; type: cell-based; details: read-out: IC50, inhibitory activity against the adhesion of human vascular smooth muscle cells to vitronectin
Method: Inhibitory Activity Against Adhesion of Human Vascular Smooth Muscle Cells to Vitronectin
The adhesion of human vascular smooth muscle cells to immobilized human vitronectin was measured in accordance with the method of Liaw et al. (Liaw L, Almeida M, Hart C E, Schwartz S M, and Giachelli C M, Circulation Research, 74 (2), 214-224 (1994)).
A Dulbecco's phosphate buffer (Dulbecco's PBS(−), Nissui Pharmaceutical Co., Ltd.) solution of human plasma-derived vitronectin (CALBIOCHEM) adjusted to a concentration of 4 μg/ml was first added to wells (50 μl/well) of a microplate (Maxisorp, Nunc), and a reaction for immobilization was allowed to proceed at 4° C. overnight. […]
Next, 50 μl of a Dulbecco's modified Eagle's basal medium containing 10 mg/ml of bovine serum albumin with a medicament added thereto was added to the wells of the human vitronectin-coated assay microplate, followed by pre-cultivation under 5% carbon dioxide at 37° C. for 10 min. […] The absorbance of the microplate thus obtained was measured at 595 nm. […] The inhibition was calculated by the following equation. IC50 was determined from a primary regression line of the logarithm of each concentration of the test compound and the logarithm of (100−inhibition)/inhibition. […]

Sequence of GP IIb/IIIa (P08514 32-887 limits assumed): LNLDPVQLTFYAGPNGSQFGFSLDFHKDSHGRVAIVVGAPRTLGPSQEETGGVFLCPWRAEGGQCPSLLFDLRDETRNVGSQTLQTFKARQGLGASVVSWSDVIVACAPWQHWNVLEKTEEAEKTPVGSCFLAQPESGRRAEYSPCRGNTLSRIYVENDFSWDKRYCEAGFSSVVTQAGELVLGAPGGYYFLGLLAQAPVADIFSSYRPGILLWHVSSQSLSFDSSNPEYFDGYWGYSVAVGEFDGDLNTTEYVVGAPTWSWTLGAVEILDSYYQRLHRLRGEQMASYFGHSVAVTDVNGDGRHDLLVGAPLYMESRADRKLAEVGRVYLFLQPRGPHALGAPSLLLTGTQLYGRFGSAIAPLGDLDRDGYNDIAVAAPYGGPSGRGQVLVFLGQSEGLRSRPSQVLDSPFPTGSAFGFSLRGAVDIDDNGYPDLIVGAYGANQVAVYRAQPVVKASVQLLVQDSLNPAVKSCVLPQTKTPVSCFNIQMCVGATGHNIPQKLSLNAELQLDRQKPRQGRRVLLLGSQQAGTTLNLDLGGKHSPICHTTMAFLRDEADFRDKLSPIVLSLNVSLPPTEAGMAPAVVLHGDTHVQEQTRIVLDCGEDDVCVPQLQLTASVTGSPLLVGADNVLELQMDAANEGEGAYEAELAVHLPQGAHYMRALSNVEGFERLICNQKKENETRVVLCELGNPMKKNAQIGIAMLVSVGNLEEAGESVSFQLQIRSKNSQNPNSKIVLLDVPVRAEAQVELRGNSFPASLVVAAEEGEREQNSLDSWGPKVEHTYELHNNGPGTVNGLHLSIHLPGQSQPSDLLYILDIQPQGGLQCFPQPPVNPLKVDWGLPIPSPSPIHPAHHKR
Sequence of GP IIb/IIIa (P08514 891-1039 partner limits assumed): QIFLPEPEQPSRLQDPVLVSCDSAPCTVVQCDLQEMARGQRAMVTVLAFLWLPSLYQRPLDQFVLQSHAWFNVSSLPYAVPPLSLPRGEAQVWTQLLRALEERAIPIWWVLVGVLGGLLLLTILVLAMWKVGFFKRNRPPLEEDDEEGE
Sequence of GP IIb/IIIa (P05106 27-788): as the sequence (P05106 27-788) above

Row | pIC50 [2] | pIC50 [3] | Compound | GP IIb/IIIa antagonistic activity (in words) (GP IIb/IIIa) | human platelet aggregation inhibition (in words) [1] | pIC50 ([1]; read-out: IC50, human platelet aggregation inhibition) | acute toxicity, symptoms (mice) | oral absorption (Oral absorption in rats)
1 |  |  | O=C(NC[C@H](NS(=O)(=O)c1ccccc1)C(=O)O)c1ccc(N2CCN(C3=NCCCN3)CC2)cc1 [Example 3, (2S)-Benzenesulfonylamino-3-[4-{4-(1,4,5,6-tetrahydropyrimidin-2-yl)-piperazin-1-yl}-benzoylamino]-propionic acid] | extremely high GP IIb/IIIa antagonistic activity | very strongly inhibited human platelet aggregation | 7.47 | no special symptom was developed | excellent oral absorption
2 | 7.51 | 6.12 | O=C(N[C@@H](CNC(=O)c1ccc(N2CCN(C3=NCCCN3)CC2)cc1)C(=O)O)OCc1ccccc1 [Example 30, (2S)-Benzyloxycarbonylamino-3-[4-{4-(1,4,5,6-tetrahydropyrimidin-2-yl)-piperazin-1-yl}-benzoylamino]-propionic Acid] |  |  |  |  | 
